Data published in patent US20140335179A1, “[…] OF ATORVASTATIN HEMICALCIUM” (DSM SINOCHEM PHARMACEUTICALS NETHERLANDS B.V., priority 2011, published 2014).
Several values for one entry are separate records, joined by “and”; a condition that tells them apart may be missing. Identical values can stand only once.

Experiments:
[1] = Determination of intrinsic dissolution rate (IDR), stationary disc method, USP 24 apparatus; assay type: physicochemical; settings: 37°C, 100 rpm, hemi calcium salt; for IDR, mean value: 50 mM sodium dihydrogen phosphate buffer pH 6.8 with 2% w/v sodium lauryl sulphate
Method: IDR of crystalline and amorphous atorvastatin hemi-calcium samples was performed by the stationary disc method using USP 24 apparatus. The discs were prepared by compacting 100 mg of powder at 800 psi pressure in a hydraulic press (Hydraulic Unit Model 3912, Carver Inc., WI) with a dwell time of 15 sec, in 8 mm punch die set (surface area 0.5 cm^2). The dissolution studies were performed in 500 ml of 50 mM sodium dihydrogen phosphate buffer (pH 6.8) containing 2% w/v sodium lauryl sulphate maintained at a temperature of 37±0.5° C. and a rotational speed of 100 rpm. Samples were withdrawn at regular intervals, replaced with dissolution medium, and analyzed by UV spectrophotometry at 242 nm up to 60 minutes.

[2] = Specific surface area determination by nitrogen gas sorption (BET); assay type: physicochemical; settings: individual samples, hemi calcium salt
Method: Specific surface area of the samples was determined using nitrogen gas sorption (Smartsorb, Smart Instruments, Mumbai, India). Prior to measurements, weighed samples were regenerated by degassing to remove moisture and contamination. The regenerated sample was dipped in liquid nitrogen and the quantity of the adsorbed gas was measured using thermal conductivity detector and then integrated using electronic circuit in terms of counts. The instrument was calibrated by injecting known quantity of nitrogen. The measured parameters were then used to calculate surface area of the sample by employing the adsorption theories of Brunauer, Emmett and Teller (BET).

[3] = mean value of 35 separate batches
Method: • Instrument: The PSD was determined using a Malvern Mastersizer 2000 equipped with hydro 2000S(A), flow cell, Fourier lenses and a multi-element detector • Data handling system: Malvern Mastersizer 2000 version 5.21 • Technique used: Wet method • Optical parameters: Optical presentation comprising of: • Particle RI: 1.5 • Absorption: 0 • Dispersant RI: 1.375 or 1.4 • Analysis Model: General purpose • Sample measurement snaps: 5000 • Background meas. snaps: 5000 • No. of measurement cycles: 5 • Delay between measurements: 5 sec • Preparation of sample solution: About 25 mg of the sample was weighed in a beaker and about 20 mL of dispersion medium was added with constant stirring and sonification for 30 sec resulting in a uniform dispersion. After sonification the measurement was performed after the obscure value was stabilized between 10-20% • Procedure: • a. The flow cell was assembled to the instrument • b. Dispersion medium poured to Hydro 2000S(A) unit • c. Stirrer speed was set at 2200 rpm • d. Instrument was aligned after feeding the required parameters • e. Background was measured • f. Sample was analyzed by recording five measurements for each sample preparation and the mean RSD values were collected at D(v, 0.1), D(v, 0.5) and D(v, 0.9)

| SMILES | IDR, mean value [1] | surface area [2] | PSD d10 [3] | PSD d50 [3] | PSD d90 [3] | IDR values of three samples ([1]; three different micronized samples of the Example, pH 6.8 buffer with 2% SLS) |
| --- | --- | --- | --- | --- | --- | --- |
| CC(C)c1c(C(=O)Nc2ccccc2)c(-c2ccccc2)c(-c2ccc(F)cc2)n1CC[C@@H](O)C[C@@H](O)CC(=O)O.CC(C)c1c(C(=O)Nc2ccccc2)c(-c2ccccc2)c(-c2ccc(F)cc2)n1CC[C@@H](O)C[C@@H](O)CC(=O)O.CC(C)c1c(C(=O)Nc2ccccc2)c(-c2ccccc2)c(-c2ccc(F)cc2)n1CC[C@@H](O)C[C@@H](O)CC(=O)[O-].CC(C)c1c(C(=O)Nc2ccccc2)c(-c2ccccc2)c(-c2ccc(F)cc2)n1CC[C@@H](O)C[C@@H](O)CC(=O)[O-].[Ca+2] (relative stereo) [amorphous atorvastatin, [R-(R*,R*)]-2-(4-fluorophenyl)-β,δ-dihydroxy-5-(1-methylethyl)-3-phenyl-4-[(phenylamino)carbonyl]-1H-pyrrole-1-heptanoic acid hemi calcium salt, reference compound] | 0.281 mg/cm^2/min | – | – | – | – | – |
| CC(C)c1c(C(=O)Nc2ccccc2)c(-c2ccccc2)c(-c2ccc(F)cc2)n1CC[C@@H](O)C[C@@H](O)CC(=O)O.CC(C)c1c(C(=O)Nc2ccccc2)c(-c2ccccc2)c(-c2ccc(F)cc2)n1CC[C@@H](O)C[C@@H](O)CC(=O)O.CC(C)c1c(C(=O)Nc2ccccc2)c(-c2ccccc2)c(-c2ccc(F)cc2)n1CC[C@@H](O)C[C@@H](O)CC(=O)[O-].CC(C)c1c(C(=O)Nc2ccccc2)c(-c2ccccc2)c(-c2ccc(F)cc2)n1CC[C@@H](O)C[C@@H](O)CC(=O)[O-].[Ca+2] (relative stereo) [crystalline atorvastatin hemi-calcium having a well-defined ] [[R-(R*,R*)]-2-(4-fluorophenyl)-β,δ-dihydroxy-5-(1-methylethyl)-3-phenyl-4-[(phenylamino)carbonyl]-1H-pyrrole-1-heptanoic acid hemi calcium salt] | 0.132 mg/cm^2/min | 8.550±0.051 m^2/g and 8.384±0.303 m^2/g and 8.684±0.216 m^2/g | 3 μm | 6 μm | 12 μm | 0.146±0.013 mg/cm^2/min and 0.130±0.017 mg/cm^2/min and 0.109±0.006 mg/cm^2/min |
